Drawing on patent US8993636B2 (Alcon, Inc., priority 1998, dated 2015), this text covers MIC90 for one compound.

SMILES strings stand for the structures. ≈ marks a conversion by molar mass, not a printed value.

Assay in all cases: Minimum inhibitory concentration (MIC90)
Assay type in all cases: cell-based

In test [1] the test system is H influenzae/β-lactamase negative. The following applies: inhibits growth of 90% of the strains. From the text:
(§1) The concentrations of the antibiotics of formula (I) in the compositions of the present invention will vary depending on the intended use of the compositions (e.g., treatment of existing infections or prevention of post-surgical infections), and the relative antimicrobial activity of the specific antibiotic selected. The antimicrobial activity of antibiotics is generally expressed as the minimum concentration required to inhibit the growth of a specified pathogen. This concentration is also referred to as the “minimum inhibitory concentration” or “MIC”. The term “MIC90” refers to the minimum concentration of antibiotic required to inhibit the growth of ninety percent (90%) of the strains of a species. The concentration of an antibiotic required to totally kill a specified bacteria is referred to as the “minimum bactericidal concentration” or “MBC”.

Test [2] concerns H. influenzae/β-lactamase positive. The following applies: Haemophilus influenzae, inhibits growth of 90% of the strains.
From the text: as §1

Another test concerns P. aeruginosa. The following applies: Pseudomonas aeruginosa, inhibits growth of 90% of the strains.
From the text: as §1

For test [3], the system named is S. aureus/methicillin resistant. The following applies: Staphylococcus aureus, inhibits growth of 90% of the strains.
From the text: as §1

The test system of test [4] is S. aureus/methicillin sensitive. The following applies: Staphylococcus aureus, inhibits growth of 90% of the strains.
From the text: as §1

In test [5] the test system is S. aureus/quinolone resistant. The following applies: Staphylococcus aureus, inhibits growth of 90% of the strains.
From the text: as §1

Test [6] concerns S. epidermidis/methicillin resistant. The following applies: Staphylococcus epidermidis, inhibits growth of 90% of the strains.
From the text: as §1

The test system of test [7] is S. epidermidis/methicillin sensitive. The following applies: Staphylococcus epidermidis, inhibits growth of 90% of the strains.
From the text: as §1

Test [8] relates to S. pneumoniae/penicillin resistant. Conditions: Streptococcus pneumoniae, inhibits growth of 90% of the strains.
From the text: as §1

In test [9] the test system is S. pneumoniae/penicillin sensitive. Conditions: Streptococcus pneumoniae, inhibits growth of 90% of the strains.
From the text: as §1

As to `COc1c(N2C[C@@H]3CCCN[C@@H]3C2)c(F)cc2c(=O)c(C(=O)O)cn(C3CC3)c12` [Moxifloxacin], the MIC90 in test [1] was 0.06 µg/mL (≈ 0.149 µM); in test [2], 0.06 µg/mL (≈ 0.149 µM); in the test with P. aeruginosa, 8 µg/mL (≈ 19.9 µM); in test [3] it was 4 µg/mL (≈ 9.96 µM); in [4], 0.13 µg/mL (≈ 0.324 µM); in test [5], 4 µg/mL (≈ 9.96 µM). Besides, the MIC90 in test [6] was 4 µg/mL (≈ 9.96 µM); in [7], 0.25 µg/mL (≈ 0.623 µM); in test [8], 0.25 µg/mL (≈ 0.623 µM); in [9] it was 0.25 µg/mL (≈ 0.623 µM).
